Experimental data reported in patent US8097634B2, “Azacyclic derivatives” (Hoffmann-La Roche Inc., priority 2010, dated 2012).
pIC50: −log10 of the molar value.

molecular target: T1, human HSL (Homo sapiens, UniProt Q05469); test: Human Hormone-Sensitive Lipase (HSL) enzyme inhibition assay (colorimetric, DMPT substrate); type: biochemical; conditions: human full length HSL-His6, 2,3-dimercapto-1-propanol tributyrate substrate, 37° C. 20 minutes; read-out: HSL hum IC50
T1 construct: fused on or other part: C-terminal His6 tag
T1 sequence (Q05469 1-1076): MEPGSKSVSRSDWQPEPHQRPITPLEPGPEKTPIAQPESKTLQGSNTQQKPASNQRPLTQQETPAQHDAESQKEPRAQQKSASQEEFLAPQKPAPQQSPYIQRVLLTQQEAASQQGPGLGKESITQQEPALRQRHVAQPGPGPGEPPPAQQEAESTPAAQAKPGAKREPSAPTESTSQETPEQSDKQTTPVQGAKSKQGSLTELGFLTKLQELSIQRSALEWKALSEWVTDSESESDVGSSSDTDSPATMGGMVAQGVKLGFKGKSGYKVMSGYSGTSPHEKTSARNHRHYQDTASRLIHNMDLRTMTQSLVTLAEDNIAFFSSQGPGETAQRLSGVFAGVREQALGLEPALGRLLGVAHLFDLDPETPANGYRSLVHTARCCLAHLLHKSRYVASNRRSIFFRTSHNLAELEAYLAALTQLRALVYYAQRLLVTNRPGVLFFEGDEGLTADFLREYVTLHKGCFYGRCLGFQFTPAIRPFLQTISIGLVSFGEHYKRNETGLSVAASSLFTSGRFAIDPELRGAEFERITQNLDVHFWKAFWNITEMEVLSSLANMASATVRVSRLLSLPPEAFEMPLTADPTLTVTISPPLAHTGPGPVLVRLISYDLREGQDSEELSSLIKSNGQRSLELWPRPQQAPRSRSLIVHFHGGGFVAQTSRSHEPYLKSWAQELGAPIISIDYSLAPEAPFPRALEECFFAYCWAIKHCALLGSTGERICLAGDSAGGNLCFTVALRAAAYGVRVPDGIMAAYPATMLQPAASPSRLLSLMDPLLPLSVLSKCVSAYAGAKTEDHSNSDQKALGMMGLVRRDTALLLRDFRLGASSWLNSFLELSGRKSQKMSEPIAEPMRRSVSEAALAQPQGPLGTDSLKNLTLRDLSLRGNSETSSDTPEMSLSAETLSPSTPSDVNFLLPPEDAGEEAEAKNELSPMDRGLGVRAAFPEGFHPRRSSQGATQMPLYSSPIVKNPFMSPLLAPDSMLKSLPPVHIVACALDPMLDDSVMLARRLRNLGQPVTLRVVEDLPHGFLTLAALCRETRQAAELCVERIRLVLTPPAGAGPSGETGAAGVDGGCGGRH
Protocol: Production of Human full length Hormone Sensitive Lipase-His^6:
1) Cloning: cDNA was prepared from commercial human brain polyA+ RNA and used as a template in overlapping PCR to generate a full length human HSL ORF with a 3′-His6 tag. This full length insert was cloned into the pFast-BAC vector and the DNA-sequence of several single clones was verified. DNA from a correct full length clone with the 3′His6 tag was used to transform the E. coli strain DH10BAC. Resulting bacmid DNA was used to generate a titered baculovirus stock for protein generation. The sequence of the encoded HSL conforms to Swissprot entry Q05469, with the additional C-terminal His6-tag.
2) Protein purification: Culture: 5.5 L, High 5 cells expressing human full length HSL-His^6, 48 hr., containing 25 μM E-64. Cell count: […], 90% viable.
Cells were thawed. On ice, cells were suspended in Base Buffer containing 10% glycerol, 25 mM Tris-Cl, 300 mM NaCl, 10 mM imidazole, 10 mM 2-mercaptoethanol, 2 μg pepstatin/ml, 2 μg leupeptin/ml, 2 μg antipain/ml, pH 8.0 at 4° C. in a final volume of 475 ml with 3.75×10^7 cells/ml. […] was done at 3×30 sec., Lubrol PX was added to 0.2% final concentration followed by stirring for 15 min. at 4° C. and centrifugation at 25 k×g, 60 min., 4° C. Soluble proteins were mixed with 60 ml of pre-washed and equilibrated Ni-NTA Agarose (Qiagen 30210) followed by tumbling end-over-end, 45 min., 4° C., centrifugation 1000 rpm 5 min and letting resin settle 5 min. Supernatant was removed, the resin washed in the centrifuge vessel using 5 volumes of Base Buffer containing 0.2% Lubrol PX. Centrifugation was done again, then the supernatant discarded. The resin was poured onto a 0.8 μm membrane in a disposable filter unit (Nalge 450-0080), and washed with 5 volumes of Base Buffer containing 0.2% Lubrol PX. It was then washed with 30 volumes of Base Buffer containing 60 mM imidazole pH 7.5 at 4° C. The protein was eluated with 5 volumes of 25 mM Tris-Cl, 300 mM NaCl, 200 mM imidazole, 10 mM 2-mercaptoethanol, pH 7.5 at 4° C. by tumbling resin with buffer end-over-end, 30 min., 4° C. The resin was captured on a 0.2 μm membrane disposable filter unit (Millipore SCGP U02 RE) and the eluate collected in the reservoir. The eluate was concentrated using a 30 k MWCO centrifugal filter device (Sartorius Vivascience Vivacell 100, VC1022), to 20 ml. It was then dialyzed overnight at 4° C., two times against 2 L of 10% glycerol, 25 mM Tris-Cl, 300 mM NaCl, 0.2 mM EDTA, 0.2 mM DTT, pH 7.5 at 4° C. The protein was filtered using a 0.22 μm disposable filter unit (Millipore SCGP00525). The protein concentration was calculated from absorbance at 280 nm, using 280=0.67 cm-1 mg-1. Yield was 235 mg, total. The protein was stored at −80° C.
Human Hormone-Sensitive Lipase (HSL) enzyme inhibition assay:
HSL enzyme activity was measured by a colorimetric assay using 2,3-dimercapto-1-propanol tributyrate (Aldrich, St. Louis, Mo.) as a substrate. Typically, 1.5 mM 2,3-dimercapto-1-propanol tributyrate (DMPT) in 100 mM MOPS, pH 7.2, 0.2 mg/ml fatty acid-free BSA was prepared by sonication at 4° C. to homogenous suspension. Test compounds (2 mM stock in DMSO) were diluted 3 fold in series in DMSO. Compound solutions were diluted 24 fold in 1.5 mM DMPT containing solution and 18 ul per well was added to 384-well microplates (Corning Costar). Twelve microliters per well of human HSL (15 ug/ml) was added and the reaction mixture was incubated at 37° C. for 20 minutes. Six microliters of 12 mM dithio-bis-(2-nitrobenzoic acid) (DTNB) in DMSO plus 1.2% SDS and 0.6% Triton X-100 were added and the mixture was incubated at room temperature for 15 minutes. Product production was monitored by reading absorbance at 405 nm on an Envision Reader (PerkinElmer Life and Analytical Sciences, Shelton, Conn.).

| pIC50 | SMILES |
| --- | --- |
| 6.57 | O=C1CC2(CCN1Cc1ccccc1)CCN(c1ccc(OC(F)(F)F)cc1)C2=O (stereo not drawn) [Example 1, 8-Benzyl-2-(4-trifluoromethoxy-phenyl)-2,8-diaza-spiro[4.5]decane-1,7-dione] |
| 6.60 | CCCN1CCC2(CCN(c3ccc(OC(F)(F)F)cc3)C2=O)CC1=O (stereo not drawn) [Example 2, 8-Propyl-2-(4-trifluoromethoxy-phenyl)-2,8-diaza-spiro[4.5]decane-1,7-dione] |
| 7.52 | O=C1CC2(CCN(c3ccc(OC(F)(F)F)cc3)C2=O)CCN1S(=O)(=O)c1ccccc1Cl (stereo not drawn) [Example 3, 8-(2-Chloro-benzenesulfonyl)-2-(4-trifluoromethoxy-phenyl)-2,8-diaza-spiro[4.5]decane-1,7-dione] |
| 6.80 | CC(C)CS(=O)(=O)N1CCC2(CCN(c3ccc(OC(F)(F)F)cc3)C2=O)CC1=O (stereo not drawn) [Example 4, 8-(2-Methyl-propane-1-sulfonyl)-2-(4-trifluoromethoxy-phenyl)-2,8-diaza-spiro[4.5]decane-1,7-dione] |
| 6.96 | CC(C)(C)CC(=O)N1CCC2(CCN(c3ccc(OC(F)(F)F)cc3)C2=O)CC1=O (stereo not drawn) [Example 5, 8-(3,3-Dimethyl-butyryl)-2-(4-trifluoromethoxy-phenyl)-2,8-diaza-spiro[4.5]decane-1,7-dione] |
| 5.22 | CN1CCC2(CCN(c3ccc(OC(F)(F)F)cc3)C2=O)CC1=O (stereo not drawn) [Example 6, 8-Methyl-2-(4-trifluoromethoxy-phenyl)-2,8-diaza-spiro[4.5]decane-1,7-dione] |
| 6.09 | CCN1CCC2(CCN(c3ccc(OC(F)(F)F)cc3)C2=O)CC1=O (stereo not drawn) [Example 7, 8-Ethyl-2-(4-trifluoromethoxy-phenyl)-2,8-diaza-spiro[4.5]decane-1,7-dione] |
| 7.00 | CCCCN1CCC2(CCN(c3ccc(OC(F)(F)F)cc3)C2=O)CC1=O (stereo not drawn) [Example 8, 8-Butyl-2-(4-trifluoromethoxy-phenyl)-2,8-diaza-spiro[4.5]decane-1,7-dione] |
| 7.10 | CC(C)(C)CN1CCC2(CCN(c3ccc(OC(F)(F)F)cc3)C2=O)CC1=O (stereo not drawn) [Example 9, 8-(2,2-Dimethyl-propyl)-2-(4-trifluoromethoxy-phenyl)-2,8-diaza-spiro[4.5]decane-1,7-dione] |
| 7.52 | O=C1CC2(CCN(c3ccc(CC(F)(F)F)cc3)C2=O)CCN1S(=O)(=O)c1ccccc1Cl (stereo not drawn) [Example 10, 8-(2-chlorophenylsulfonyl)-2-(4-(2,2,2-trifluoroethyl)phenyl)-2,8-diazaspiro[4.5]decane-1,7-dione] |
| 7.22 | CC(C)(C)CC(=O)N1CCC2(CCN(c3ccc(CC(F)(F)F)cc3)C2=O)CC1=O (stereo not drawn) [Example 11, 8-(3,3-dimethylbutanoyl)-2-(4-(2,2,2-trifluoroethyl)phenyl)-2,8-diazaspiro[4.5]decane-1,7-dione] |
| 6.85 | CC(C)(C)CC(=O)N1CCC2(CCN(c3ccc(OCC(F)(F)F)cc3)C2=O)CC1=O (stereo not drawn) [Example 12, 8-(3,3-dimethylbutanoyl)-2-(4-(2,2,2-trifluoroethoxy)phenyl)-2,8-diazaspiro[4.5]decane-1,7-dione] |
